# According to US20220386606A1, “SPECIFICALLY SUBSTITUTED 3-PHENYL-5-SPIROCYCLOPENTYL-3-PYRROLIN-2-ONES AND THEIR USE AS HERBICIDES” (Bayer Aktiengesellschaft, priority 2019, published 2022):
# What was measured:
# [1] = system: ALOMY; test: Post-emergence herbicidal action against ALOMY; type: in vivo, Alopecurus myosuroides; conditions: 80 g/ha, visual assessment after about 3 weeks
# How it was run: (§1)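 Visual scoring about 3 weeks after treatment gave % herbicidal action relative to untreated plants (0% = control-like, 100% = plants dead). Compounds, as WP or EC with 0.2% wetting agent, were sprayed onto green parts at 600–800 l/ha. Plants had reached the one-leaf stage, 2–3 weeks after sowing in sandy loam under greenhouse conditions.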
# [2] = system: ECHCG; test: Post-emergence herbicidal action against ECHCG; type: in vivo, Echinochloa crus-galli; conditions: 80 g/ha, visual assessment about 3 weeks after treatment vs untreated controls
# How it was run: as §1
# [3] = system: VIOTR; test: Pre-emergence herbicidal action against VIOTR; type: in vivo, Viola tricolor; conditions: 320 g/ha
# How it was run: (§2)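 Herbicidal activity is expressed as percent visual damage compared with untreated controls, where 100% means dead plants, assessed 3 weeks after pre-emergence treatment of sown, soil-covered seeds in sandy loam under greenhouse conditions.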
# [4] = system: AVEFA; test: Post-emergence herbicidal action against AVEFA; type: in vivo, Avena fatua; conditions: 80 g/ha, visual assessment after about 3 weeks
# How it was run: as §1
# [5] = system: AVEFA; test: Pre-emergence herbicidal action against AVEFA; type: in vivo, Avena fatua; conditions: 320 g/ha, scored visually after 3 weeks vs untreated controls
# How it was run: as §2
# [6] = system: ECHCG; test: Pre-emergence herbicidal action against ECHCG; type: in vivo, Echinochloa crus-galli; conditions: 320 g/ha, scored visually after 3 weeks vs untreated controls
# How it was run: as §2
# [7] = system: VIOTR; test: Post-emergence herbicidal action against VIOTR; type: in vivo, Viola tricolor; conditions: 80 g/ha, visual assessment about 3 weeks after treatment vs untreated controls
# Description: Seeds of monocotyledonous and dicotyledonous weed and crop plants are laid out in sandy loam soil in wood-fiber pots, covered with soil and cultivated in a greenhouse under good growth conditions. 2 to 3 weeks after sowing, the test plants are treated at the one-leaf stage. The compounds of the invention, formulated in the form of wettable powders (WP) or as emulsion concentrates (EC), are then sprayed onto the green parts of the plants as aqueous suspension or emulsion at a water application rate equating to 600 to 800 l/ha with addition of 0.2% wetting agent. After the test plants have been left to stand in the greenhouse under optimal growth conditions for about 3 weeks, the action of the preparations is assessed visually in comparison to untreated controls (herbicidal action in percent (%): 100% activity=the plants have died, 0% activity=like control plants).
# [8] = system: LOLRI; test: Post-emergence herbicidal action against LOLRI; type: in vivo, Lolium rigidum; conditions: 80 g/ha, visual assessment about 3 weeks after treatment vs untreated controls
# How it was run: as §1
# [9] = system: ALOMY; test: Pre-emergence herbicidal action against ALOMY; type: in vivo, Alopecurus myosuroides; conditions: 320 g/ha, scored visually after 3 weeks vs untreated controls
# How it was run: as §2
# [10] = system: SETVI; test: Pre-emergence herbicidal action against SETVI; type: in vivo, Setaria viridis; conditions: 320 g/ha, scored visually after 3 weeks vs untreated controls
# How it was run: as §2
# [11] = system: DIGSA; test: Pre-emergence herbicidal action against DIGSA; type: in vivo, Digitaria sanguinalis; conditions: 320 g/ha, scored visually after 3 weeks vs untreated controls
# How it was run: as §2
# [12] = system: LOLRI; test: Pre-emergence herbicidal action against LOLRI (Table 8, titled post-emergence at 320 g/ha); type: in vivo, Lolium rigidum; conditions: table stands in the pre-emergence section
# How it was run: as §2
# [13] = system: AMARE; test: Pre-emergence herbicidal action against AMARE; type: in vivo, Amaranthus retroflexus; conditions: 320 g/ha
# How it was run: as §2
# [14] = system: SETVI; test: Post-emergence herbicidal action against SETVI; type: in vivo, Setaria viridis; conditions: 80 g/ha, visual assessment about 3 weeks after treatment vs untreated controls
# How it was run: as §1
# [15] = system: DIGSA; test: Post-emergence herbicidal action against DIGSA; type: in vivo, Digitaria sanguinalis; conditions: 80 g/ha, visual assessment about 3 weeks after treatment vs untreated controls
# How it was run: as §1
# [16] = system: ABUTH; test: Post-emergence herbicidal action against ABUTH; type: in vivo, Abutylon threophrasti; conditions: 80 g/ha, visual assessment about 3 weeks after treatment vs untreated controls
# How it was run: as §1
# [17] = system: MATIN; test: Pre-emergence herbicidal action against MATIN; type: in vivo; conditions: 320 g/ha
# How it was run: as §2
# [18] = system: POLCO; test: Pre-emergence herbicidal action against POLCO; type: in vivo, Polygonum convolvulus; conditions: 320 g/ha
# How it was run: as §2
# [19] = system: VERPE; test: Pre-emergence herbicidal action against VERPE; type: in vivo, Veronica persica; conditions: 320 g/ha
# How it was run: as §2
# [20] = system: ABUTH; test: Pre-emergence herbicidal action against ABUTH; type: in vivo, Abutylon threophrasti; conditions: 320 g/ha
# Excerpt: Seeds of monocotyledonous and dicotyledonous weed plants and crop plants are laid out in sandy loam soil in wood-fiber pots and covered with soil. The compounds of the invention, formulated in the form of wettable powders (WP) or as emulsion concentrates (EC), are then applied to the surface of the covering soil as aqueous suspension or emulsion at a water application rate equating to 600 to 800 L/ha with addition of 0.2% wetting agent.
# After the treatment, the pots are placed in a greenhouse and kept under good growth conditions for the trial plants. The damage to the test plants is scored visually after a test period of 3 weeks by comparison with untreated controls (herbicidal activity in percent (%): 100% activity=the plants have died, 0% activity=like control plants).
Structure (SMILES),Post-emergence action against ALOMY in % [1] [%],Post-emergence action against ECHCG in % [2] [%],Pre-emergence action against VIOTR in % [3] [%],Post-emergence action against AVEFA in % [4] [%],Pre-emergence action against AVEFA in % [5] [%],Pre-emergence action against ECHCG in % [6] [%],Post-emergence action against VIOTR in % [7] [%],Post-emergence action against LOLRI in % [8] [%],Pre-emergence action against ALOMY in % [9] [%],Pre-emergence action against SETVI in % [10] [%],Pre-emergence action against DIGSA in % [11] [%],Pre-emergence herbicidal action against LOLRI in % [12] [%],Pre-emergence action against AMARE in % [13] [%],Post-emergence action against SETVI in % [14] [%],Post-emergence action against DIGSA in % [15] [%],Post-emergence action against ABUTH in % [16] [%],Pre-emergence action against MATIN in % [17] [%],Pre-emergence action against POLCO in % [18] [%],Pre-emergence action against VERPE in % [19] [%],Pre-emergence action against ABUTH in % [20] [%]
C=CCOCC1CCC2(C1)NC(=O)C(c1c(C)cc(C#CC)cc1OC)=C2O (stereo not shown) [Example I-47],100,100,100,90,90,100,100,100,100,100,100,100,–,–,–,–,–,–,–,–
CC#Cc1cc(C)c(C2=C(OC(=O)C(C)C)C3(CCC(COC)C3)NC2=O)c(Br)c1 (stereo not shown) [Example P-32],100,100,100,90,90,100,–,100,100,100,100,100,90,100,100,90,80,80,90,80
CC#Cc1cc(C)c(C2=C(OC(=O)OCC)C3(CCC(COCC)C3)NC2=O)c(Br)c1 (stereo not shown) [Example P-35],100,90,100,80,100,100,90,100,100,100,100,100,100,100,100,–,–,–,80,–
C=CCOCC1CCC2(C1)NC(=O)C(c1c(C)cc(C#CC)cc1Cl)=C2OC(=O)OCC (stereo not shown) [Example P-72],80,100,100,–,–,100,90,80,90,100,100,100,–,100,90,–,–,100,80,–
CC#Cc1cc(C)c(C2=C(OC(=O)OCC)C3(CCC(COCC)C3)NC2=O)c(OC)c1 (stereo not shown) [Example P-49],100,100,100,90,100,100,80,100,100,100,100,100,–,100,90,–,80,–,80,–
CC#Cc1cc(C)c(C2=C(OC(=O)OCC)C3(CCC(COCCC)C3)NC2=O)c(Cl)c1 (stereo not shown) [Example P-87],90,100,90,80,100,100,–,100,100,100,100,100,–,100,100,80,–,80,80,80
CC#Cc1cc(F)c(C2=C(OC(=O)OCC)C3(CCC(COCCC)C3)NC2=O)c(OC)c1 (stereo not shown) [Example P-82],100,100,90,–,90,100,80,100,100,100,100,100,90,100,90,–,–,100,–,–
C=CCOCC1CCC2(C1)NC(=O)C(c1c(C)cc(C#CC)cc1Cl)=C2OC(=O)OCC (stereo not shown) [Example P-71],80,100,100,80,90,100,100,80,100,100,100,100,–,100,90,–,–,90,90,–
CC#Cc1cc(Br)c(C2=C(OC(=O)OCC)C3(CCC(COC)C3)NC2=O)c(OC)c1 (stereo not shown) [Example P-08],100,100,90,–,100,100,–,100,100,100,100,100,–,100,100,80,80,100,90,80
